Test results taken from PMC7826463, “Pamiparib dose escalation in Chinese patients with non‐mucinous high‐grade ovarian cancer or advanced triple‐negative breast cancer” (Cancer Medicine, 2020).
“And” between values parts separate entries of the source, which are not always exact repeats. Equal entries are not always repeated. “Also recorded” adds a separate entry of the source.

Tested on: Chinese patients with advanced HGOC or TNBC
Experiment: Safety/tolerability (adverse events per NCI-CTCAE v4.03, DLTs) in phase 1 dose escalation (NCT03333915)
Assay type: in vivo
Details: for Discontinued treatment: Adverse event: count (percent)
From the text: This phase 1/2, open‐label, multicenter study assessed the safety and antitumor activity of pamiparib in Chinese patients ≥18 years with advanced solid tumors whose disease progressed despite standard therapy or for which there is no standard therapy. Phase 1 was a dose‐escalation study, with a 3 + 3 design, that evaluated the single‐agent safety/tolerability, pharmacokinetic (PK) profile, and preliminary antitumor activity of pamiparib and confirmed the RP2D in Chinese patients (Figure 1). The phase 2 dose‐expansion component of this study is investigating the single‐agent antitumor activity and safety/tolerability of pamiparib.
In phase 1, patients received pamiparib at 20, 40, and 60 mg BID dose levels. The starting dose for pamiparib (20 mg BID) was selected as one‐third of the RP2D (60 mg BID) and one‐fourth of the MTD (80 mg BID), which were determined in the FIH study. […] Safety evaluations, including dose‐limiting toxicities (DLTs), of ≥3 patients completing one cycle of treatment at a specific dose level were required before proceeding to the next cohort with a higher dose level. Patients could continue the study treatment in 21‐day cycles and subsequent cycles at the discretion of the investigator.
The primary objective in phase 1 was to evaluate the safety and tolerability of pamiparib. Safety and tolerability endpoint assessments were based on monitoring of treatment‐emergent adverse events (AEs), in addition to vital signs, electrocardiograms, physical examinations, and clinical laboratory results. The incidence and severity of all AEs and incidence of serious AEs were assessed according to the National Cancer Institute‐Common Terminology Criteria for Adverse Events v4.03.
Approximately 14 to 18 evaluable patients were expected to enroll in the phase 1 part of the study. The safety population included all patients who received ≥1 dose of pamiparib. The PK population included all patients for whom valid pamiparib PK parameters could be estimated. Antitumor activity per RECIST v1.1 was assessed in all evaluable patients. Patients were considered response evaluable if they had measurable disease at baseline per RECIST v1.1 and had ≥1 post‐baseline tumor assessment, unless treatment had been discontinued due to clinical progression or death prior to tumor assessment. The population evaluable for CA‐125 response included patients in the safety population with baseline CA‐125 ≥2 x upper limit of normal.

## C[C@]12CCCN1CC1=NNC(=O)c3cc(F)cc4[nH]c2c1c34 [pamiparib, Pamiparib]
20 mg BID (n = 4)
  Treatment-related adverse event Asthenia, All Grades: 3 (75.0) n (%)
  Treatment-related adverse event Asthenia, Grade ≥3: 0 n (%)
  Treatment-related adverse event Decreased appetite, All Grades: 3 (75.0) n (%)
  Treatment-related adverse event Decreased appetite, Grade ≥3: 0 n (%)
  Treatment-related adverse event Decreased hemoglobin, All Grades: 0 n (%)
  Treatment-related adverse event Decreased hemoglobin, Grade ≥3: 0 n (%)
  Treatment-related adverse event Decreased neutrophil count, All Grades: 1 (25.0) n (%)
  Treatment-related adverse event Decreased neutrophil count, Grade ≥3: 0 n (%)
  Treatment-related adverse event Decreased platelet count, All Grades: 0 n (%)
  Treatment-related adverse event Decreased platelet count, Grade ≥3: 0 n (%)
  Treatment-related adverse event Decreased white blood cell count, All Grades: 2 (50.0) n (%)
  Treatment-related adverse event Decreased white blood cell count, Grade ≥3: 0 n (%)
  Treatment-related adverse event Diarrhea, All Grades: 0 n (%)
  Treatment-related adverse event Diarrhea, Grade ≥3: 0 n (%)
  Treatment-related adverse event Increased GGT, All Grades: 1 (25.0) n (%)
  Treatment-related adverse event Increased GGT, Grade ≥3: 0 n (%)
  Treatment-related adverse event Increased conjugated bilirubin, All Grades: 1 (25.0) n (%)
  Treatment-related adverse event Increased conjugated bilirubin, Grade ≥3: 0 n (%)
  Treatment-related adverse event Nausea, All Grades: 4 (100.0) n (%)
  Treatment-related adverse event Nausea, Grade ≥3: 0 n (%)
  Treatment-related adverse event Prolonged electrocardiogram QT, All Grades: 1 (25.0) n (%)
  Treatment-related adverse event Prolonged electrocardiogram QT, Grade ≥3: 1 (25.0) n (%)
  Treatment-related adverse event Somnolence, All Grades: 1 (25.0) n (%)
  Treatment-related adverse event Somnolence, Grade ≥3: 0 n (%)
  Treatment-related adverse event Tachycardia, All Grades: 0 n (%)
  Treatment-related adverse event Tachycardia, Grade ≥3: 0 n (%)
  Treatment-related adverse event Vomiting, All Grades: 1 (25.0) n (%)
  Treatment-related adverse event Vomiting, Grade ≥3: 0 n (%)
20 mg BID (n=4)
  Discontinued treatment: Adverse event: 0
40 mg BID (n = 4)
  Treatment-related adverse event Asthenia, All Grades: 4 (100.0) n (%)
  Treatment-related adverse event Asthenia, Grade ≥3: 0 n (%)
  Treatment-related adverse event Decreased appetite, All Grades: 3 (75.0) n (%)
  Treatment-related adverse event Decreased appetite, Grade ≥3: 0 n (%)
  Treatment-related adverse event Decreased hemoglobin, All Grades: 1 (25.0) n (%)
  Treatment-related adverse event Decreased hemoglobin, Grade ≥3: 0 n (%)
  Treatment-related adverse event Decreased neutrophil count, All Grades: 3 (75.0) n (%)
  Treatment-related adverse event Decreased neutrophil count, Grade ≥3: 0 n (%)
  Treatment-related adverse event Decreased platelet count, All Grades: 0 n (%)
  Treatment-related adverse event Decreased platelet count, Grade ≥3: 0 n (%)
  Treatment-related adverse event Decreased white blood cell count, All Grades: 3 (75.0) n (%)
  Treatment-related adverse event Decreased white blood cell count, Grade ≥3: 0 n (%)
  Treatment-related adverse event Diarrhea, All Grades: 1 (25.0) n (%)
  Treatment-related adverse event Diarrhea, Grade ≥3: 0 n (%)
  Treatment-related adverse event Increased GGT, All Grades: 1 (25.0) n (%)
  Treatment-related adverse event Increased GGT, Grade ≥3: 0 n (%)
  Treatment-related adverse event Increased conjugated bilirubin, All Grades: 1 (25.0) n (%)
  Treatment-related adverse event Increased conjugated bilirubin, Grade ≥3: 0 n (%)
  Treatment-related adverse event Nausea, All Grades: 3 (75.0) n (%)
  Treatment-related adverse event Nausea, Grade ≥3: 0 n (%)
  Treatment-related adverse event Prolonged electrocardiogram QT, All Grades: 1 (25.0) n (%)
  Treatment-related adverse event Prolonged electrocardiogram QT, Grade ≥3: 0 n (%)
  Treatment-related adverse event Somnolence, All Grades: 1 (25.0) n (%)
  Treatment-related adverse event Somnolence, Grade ≥3: 0 n (%)
  Treatment-related adverse event Tachycardia, All Grades: 1 (25.0) n (%)
  Treatment-related adverse event Tachycardia, Grade ≥3: 0 n (%)
  Treatment-related adverse event Vomiting, All Grades: 1 (25.0) n (%)
  Treatment-related adverse event Vomiting, Grade ≥3: 0 n (%)
40 mg BID (n=4)
  Discontinued treatment: Adverse event: 0
60 mg BID (n = 7)
  Treatment-related adverse event Asthenia, All Grades: 5 (71.4) n (%)
  Treatment-related adverse event Asthenia, Grade ≥3: 0 n (%)
  Treatment-related adverse event Decreased appetite, All Grades: 3 (42.9) n (%)
  Treatment-related adverse event Decreased appetite, Grade ≥3: 0 n (%)
  Treatment-related adverse event Decreased hemoglobin, All Grades: 5 (71.4) n (%)
  Treatment-related adverse event Decreased hemoglobin, Grade ≥3: 3 (42.9) n (%)
  Treatment-related adverse event Decreased neutrophil count, All Grades: 4 (57.1) n (%)
  Treatment-related adverse event Decreased neutrophil count, Grade ≥3: 2 (28.6) n (%)
  Treatment-related adverse event Decreased platelet count, All Grades: 3 (42.9) n (%)
  Treatment-related adverse event Decreased platelet count, Grade ≥3: 1 (14.3) n (%)
  Treatment-related adverse event Decreased white blood cell count, All Grades: 5 (71.4) n (%)
  Treatment-related adverse event Decreased white blood cell count, Grade ≥3: 2 (28.6) n (%)
  Treatment-related adverse event Diarrhea, All Grades: 2 (28.6) n (%)
  Treatment-related adverse event Diarrhea, Grade ≥3: 0 n (%)
  Treatment-related adverse event Increased GGT, All Grades: 1 (14.3) n (%)
  Treatment-related adverse event Increased GGT, Grade ≥3: 0 n (%)
  Treatment-related adverse event Increased conjugated bilirubin, All Grades: 2 (28.6) n (%)
  Treatment-related adverse event Increased conjugated bilirubin, Grade ≥3: 0 n (%)
  Treatment-related adverse event Nausea, All Grades: 5 (71.4) n (%)
  Treatment-related adverse event Nausea, Grade ≥3: 1 (14.3) n (%)
  Treatment-related adverse event Prolonged electrocardiogram QT, All Grades: 2 (28.6) n (%)
  Treatment-related adverse event Prolonged electrocardiogram QT, Grade ≥3: 0 n (%)
  Treatment-related adverse event Somnolence, All Grades: 1 (14.3) n (%)
  Treatment-related adverse event Somnolence, Grade ≥3: 0 n (%)
  Treatment-related adverse event Tachycardia, All Grades: 2 (28.6) n (%)
  Treatment-related adverse event Tachycardia, Grade ≥3: 0 n (%)
  Treatment-related adverse event Vomiting, All Grades: 2 (28.6) n (%)
  Treatment-related adverse event Vomiting, Grade ≥3: 1 (14.3) n (%)
60 mg BID (n=7)
  Discontinued treatment: Adverse event: 2 (28.6)
20 to 60 mg BID, Chinese patients
  Tolerability: generally well tolerated
N = 15
  Grade 3 TRAE: anemia: 2 n
  Grade 4 or 5 TRAEs: No grade 4 or 5 TRAEs
  Grade ≥4 AEs: no grade ≥4 AEs
  Patients who experienced a serious AE: three
  Patients who experienced ≥1 AE considered related to pamiparib: 100%
  Serious AE: abdominal infection: 1 n
  Serious AE: intestinal obstruction: 1 n
  Serious AE: pleural effusion: 1 n
  Serious AEs considered related to study treatment: none and no DLTs or serious AEs considered related to pamiparib
N = 15 (10 patients), all causality
  Patients who experienced grade ≥3 AEs: 67%
N = 15 (six patients)
  Patients who experienced ≥1 TRAE of grade 3 severity: 40%
N = 15, all causality
  AE of any grade: asthenia: 80%
  AE of any grade: decreased appetite: 60%
  AE of any grade: decreased white blood cell count: 67%
  AE of any grade: nausea: 80%
  Grade ≥3 AE: anemia: 27%
  Grade ≥3 AE: decreased hemoglobin: 20%
  Patients who experienced ≥1 AE of any grade: 15 patients
N = 15, any grade
  Treatment-related AE: asthenia: 80%
  Treatment-related AE: nausea: 80%
PO
  Recommended phase 2 dose (RP2D) confirmed in Chinese patients: 60 mg BID
Total (N = 15)
  Treatment-related adverse event Asthenia, All Grades: 12 n (%) and 12 (80.0) n (%)
  Treatment-related adverse event Asthenia, Grade ≥3: 0 n (%)
  Treatment-related adverse event Decreased appetite, All Grades: 9 (60.0) n (%)
  Treatment-related adverse event Decreased appetite, Grade ≥3: 0 n (%)
  Treatment-related adverse event Decreased hemoglobin, All Grades: 6 (40.0) n (%)
  Treatment-related adverse event Decreased hemoglobin, Grade ≥3: 3 n (%) and 3 (20) n (%)
  Treatment-related adverse event Decreased neutrophil count, All Grades: 8 (53.3) n (%)
  Treatment-related adverse event Decreased neutrophil count, Grade ≥3: 2 n (%) and 2 (13) n (%)
  Treatment-related adverse event Decreased platelet count, All Grades: 3 (20.0) n (%)
  Treatment-related adverse event Decreased platelet count, Grade ≥3: 1 n (%) and 1 (7) n (%)
  Treatment-related adverse event Decreased white blood cell count, All Grades: 10 (66.7) n (%)
  Treatment-related adverse event Decreased white blood cell count, Grade ≥3: 2 n (%) and 2 (13) n (%)
  Treatment-related adverse event Diarrhea, All Grades: 3 (20.0) n (%)
  Treatment-related adverse event Diarrhea, Grade ≥3: 0 n (%)
  Treatment-related adverse event Increased GGT, All Grades: 3 (20.0) n (%)
  Treatment-related adverse event Increased GGT, Grade ≥3: 0 n (%)
  Treatment-related adverse event Increased conjugated bilirubin, All Grades: 4 (26.7) n (%)
  Treatment-related adverse event Increased conjugated bilirubin, Grade ≥3: 0 n (%)
  Treatment-related adverse event Nausea, All Grades: 12 n (%) and 12 (80.0) n (%)
  Treatment-related adverse event Nausea, Grade ≥3: 1 n (%) and 1 (7) n (%)
  Treatment-related adverse event Prolonged electrocardiogram QT, All Grades: 4 (26.7) n (%)
  Treatment-related adverse event Prolonged electrocardiogram QT, Grade ≥3: 1 n (%) and 1 (7) n (%)
  Treatment-related adverse event Somnolence, All Grades: 3 (20.0) n (%)
  Treatment-related adverse event Somnolence, Grade ≥3: 0 n (%)
  Treatment-related adverse event Tachycardia, All Grades: 3 (20.0) n (%)
  Treatment-related adverse event Tachycardia, Grade ≥3: 0 n (%)
  Treatment-related adverse event Vomiting, All Grades: 4 (26.7) n (%)
  Treatment-related adverse event Vomiting, Grade ≥3: 1 n (%) and 1 (7) n (%)
Pamiparib dose range 20-60 mg BID, 23-day initial cycle
  Dose-limiting toxicities (DLTs): No dose‐limiting toxicities; also recorded: no DLTs
